Earlier results, collected in US20060251690A1, “Skin enrichment using CoQ10 as the delivery system” (Zymes, LLC, priority 2005, published 2006).
Like-named read-outs stand apart in the source and are kept apart here.

What was measured:
[1] = not given; remark: listed apart in the source
[2] = human skin (in vitro)
[3] = not given; remark: listed apart in the source
[4] = after chronic topical use, combined with other fat and water soluble ingredients

## COC1=C(OC)C(=O)C(C/C=C(\C)CC/C=C(\C)CC/C=C(\C)CC/C=C(\C)CC/C=C(\C)CC/C=C(\C)CC/C=C(\C)CC/C=C(\C)CC/C=C(\C)CCC=C(C)C)=C(C)C1=O [CoQ10, 2,3 dimethoxy-5 methyl-6 decaprenyl benzoquinone]
other
  half life: > 30 h

## O=C(O)CCCCCCCC(=O)O [azelaic acid]
[1]
  half-life after application: 12 h
[2]
  applied dose found in the epidermis and dermis: Up to 10%

## COc1ccc(-c2ccc3cc(C(=O)O)ccc3c2)cc1C12CC3CC(CC(C3)C1)C2 [adapalene]
[3]; ethanol
  solubility in polar solvents such as ethanol: only sparingly soluble
[3]; water
  solubility in water: virtually insoluble
[4]
  absorption of adapalene: < 0.25 ng/mL

## O=C1O[C@H]([C@@H](O)CO)C(O)=C1O [vitamin C]
Autoxidation named as cause
  half life: 0.5 h
